{
  "source": "paper PMC9603010",
  "about": "(ACS Bio & Med Chem Au, 2022)",
  "key": {"3CL^pro Q299A": {"target": "3CL^pro Q299A (Severe acute respiratory syndrome coronavirus 2, UniProt P0DTD1, Q3562A)", "assay_type": "cell-based, SARS-CoV-2"}, "3CL^pro M165A": {"target": "3CL^pro M165A (Severe acute respiratory syndrome coronavirus 2, UniProt P0DTD1, M3428A)", "assay_type": "cell-based, SARS-CoV-2"}},
  "data": [
    {"smiles": "C=C1C(=O)O[C@H]2[C@H]1CC/C(C)=C/CC[C@@]1(C)O[C@@H]21", "note": "[parthenolide]", "values": [
      {"measurement": "inhibition in Q299A compared to WT", "setting": "3CL^pro Q299A", "value": "reduced"},
      {"measurement": "inhibition in M165A compared to WT", "setting": "3CL^pro M165A", "value": "reduced"}
    ]}
  ]
}
